{
  "source": "patent US20240148714A1",
  "about": "“Triple Negative Breast Cancer Treatment Method” (Exelixis, Inc., priority 2016, published 2024)",
  "origin": "cited, not measured here",
  "system": "mTNBC",
  "conditions": "bevacizumab and onartuzumab combined, with paclitaxel; mTNBC patients without previous paclitaxel for metastatic disease; cited from earlier work",
  "data": [
    {"substance": "bevacizumab", "values": [
      {"measurement": "clinical benefit", "result": "no clinical benefit"}
    ]},
    {"substance": "onartuzumab", "values": [
      {"measurement": "clinical benefit", "result": "no clinical benefit"}
    ]}
  ]
}
